Experimental data as given in ChEMBL document CHEMBL1151839, “Phosphorothioate analogs of m7GTP are enzymatically stable inhibitors of cap-dependent translation” (Bioorg Med Chem Lett, 2009).

Assays:
[1] = biological target: Eukaryotic translation initiation factor 4E (Mus musculus) (UniProt P63073)
Description: Binding affinity to mouse eukaryotic initiation factor 4E expressed in Escherichia coli BL21(DE3) by fluorescence quenching titration method

[2] = Stability in presence of human DcpS assessed as complete degradation at 40 uM by HPLC-based assay; format: ADME
[3] = biological target: T1, Eukaryotic translation initiation factor 4E (Oryctolagus cuniculus, UniProt P29338); test: Inhibition of eukaryotic initiation factor 4E in micrococcal nuclease-pretreated rabbit reticulocyte lysate assessed as inhibition of m7,3'-O-GpppG-capped 5'UTRbetaglob-LUC mRNA translation by luciferase-based luminometry
[4] = biological target: T1, Eukaryotic translation initiation factor 4E; test: Inhibition of eukaryotic initiation factor 4E in micrococcal nuclease-pretreated rabbit reticulocyte lysate assessed as inhibition of m7,3'-O-GpppG-capped 5'UTRbetaglob-LUC mRNA translation treated 60 mins before mRNA addition by luciferase-based luminometry
[5] = biological target: T1, Eukaryotic translation initiation factor 4E; test: Inhibition of eukaryotic initiation factor 4E in micrococcal nuclease-pretreated rabbit reticulocyte lysate assessed as inhibition of rabbit beta-[…] mRNA translation by [3H]leucine incorporation assay

T1 sequence (P29338 whole entry): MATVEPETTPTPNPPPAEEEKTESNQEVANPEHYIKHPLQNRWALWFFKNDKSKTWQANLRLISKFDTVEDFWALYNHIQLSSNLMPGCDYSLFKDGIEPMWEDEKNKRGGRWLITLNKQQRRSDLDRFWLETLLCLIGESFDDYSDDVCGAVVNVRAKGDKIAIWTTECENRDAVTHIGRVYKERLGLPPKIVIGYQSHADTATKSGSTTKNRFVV
Chain of Eukaryotic translation initiation factor 4E (Mus musculus) (P63073 whole entry): as the sequence (P29338 whole entry) above, with P12T counted along it

Row | SMILES | Ka [1] [µM⁻¹] | Stability [2] | IC50 [3] [nM] | IC50 [4] [nM] | IC50 [5] [µM]
1 | C[n+]1cn([C@@H]2O[C@H](COP(=O)(O)OP(=O)([O-])OP(=O)(O)OC[C@H]3O[C@@H](n4cnc5c(=O)[nH]c(N)nc54)[C@H](O)[C@@H]3O)[C@@H](O)[C@H]2O)c2nc(N)nc(O)c21 | 9.4 | – | – | – | –
2 | C[n+]1cn([C@@H]2O[C@H](CO[P@@](=O)(S)OP(=O)(O)OP(=O)([O-])O)[C@@H](O)[C@H]2O)c2c1C(O)NC(N)=N2 (stereo not given in full) | 190 | – | – | – | –
3 | C[n+]1cn([C@@H]2O[C@H](COP(=O)([O-])OP(=O)(O)OP(=O)(O)O)[C@@H](O)[C@H]2O)c2nc(N)[nH]c(=O)c21 | – | Unstable | – | – | –
4 | C[n+]1cn([C@@H]2O[C@H](CO[P@@](=O)(S)OP(=O)([O-])OP(=O)(O)OC[C@H]3O[C@@H](n4cnc5c(=O)[nH]c(N)nc54)[C@H](O)[C@@H]3O)[C@@H](O)[C@H]2O)c2nc(N)nc(O)c21 | 10 | Stable | 3800 | 2100 | 12.1
5 | C[n+]1cn([C@@H]2O[C@H](CO[P@](=O)(S)OP(=O)(O)OP(=O)(O)OC[C@H]3O[C@@H](n4cnc5c(=O)[nH]c(N)nc54)[C@H](O)[C@@H]3O)[C@@H](O)[C@H]2O)c2nc(N)[n-]c(=O)c21 | – | Stable | 1100 | 1200 | 4.1
6 | C[n+]1cn([C@@H]2O[C@H](CO[P@](=O)(S)OP(=O)([O-])OP(=O)(O)O)[C@@H](O)[C@H]2O)c2nc(N)nc(O)c21 | 371 | Stable | 560 | 560 | –
7 | C[n+]1cn([C@@H]2O[C@H](COP(=O)(O)OP(=O)([O-])OP(=O)(O)OC[C@H]3O[C@@H](n4cnc5c(=O)[nH]c(N)nc54)[C@H](O)[C@@H]3O)[C@@H](O)[C@H]2O)c2nc(N)[nH]c(=O)c21 | – | Unstable | 8300 | < 20000 | 17.1
